Measurements from ChEMBL document CHEMBL4130413, “1-Aryl-1H- and 2-aryl-2H-1,2,3-triazole derivatives blockade P2X7 receptor in vitro and inflammatory response in vivo” (Eur J Med Chem, 2017).
Each block holds one molecule with its values, some of them ahead of it. Active and inactive are the calls of the source. The rule behind the calls is not given here.

How the values were obtained:
Mus musculus [1] = test: Anti-inflammatory activity in Swiss mouse assessed as inhibition of LPS-induced pleural accumulation in eosiniphils at 100 mg/kg, ip pretreated for 1 hr followed by LPS stimulation and measured after 24 hrs by May-Grunwald-Giemsa staining-based Neubauer chamber based optical microscopy; assay type: functional, organism-based
Mus musculus [2] = test: Anti-inflammatory activity in Swiss mouse assessed as inhibition of LPS-induced pleural accumulation in total leucocytes at 100 mg/kg, ip pretreated for 1 hr followed by LPS stimulation and measured after 24 hrs by May-Grunwald-Giemsa staining-based Neubauer chamber based optical microscopy; assay type: functional, organism-based
[3] = molecular target: T1, P2X purinoceptor 7 (Mus musculus) (UniProt Q9Z1M0); test: (§1) Antagonist activity at P2X7 receptor in Swiss mouse peritoneal macrophages assessed as inhibition of ATP-induced propidium iodide uptake after 25 mins by flow cytometric analysis
T1 sequence (whole entry): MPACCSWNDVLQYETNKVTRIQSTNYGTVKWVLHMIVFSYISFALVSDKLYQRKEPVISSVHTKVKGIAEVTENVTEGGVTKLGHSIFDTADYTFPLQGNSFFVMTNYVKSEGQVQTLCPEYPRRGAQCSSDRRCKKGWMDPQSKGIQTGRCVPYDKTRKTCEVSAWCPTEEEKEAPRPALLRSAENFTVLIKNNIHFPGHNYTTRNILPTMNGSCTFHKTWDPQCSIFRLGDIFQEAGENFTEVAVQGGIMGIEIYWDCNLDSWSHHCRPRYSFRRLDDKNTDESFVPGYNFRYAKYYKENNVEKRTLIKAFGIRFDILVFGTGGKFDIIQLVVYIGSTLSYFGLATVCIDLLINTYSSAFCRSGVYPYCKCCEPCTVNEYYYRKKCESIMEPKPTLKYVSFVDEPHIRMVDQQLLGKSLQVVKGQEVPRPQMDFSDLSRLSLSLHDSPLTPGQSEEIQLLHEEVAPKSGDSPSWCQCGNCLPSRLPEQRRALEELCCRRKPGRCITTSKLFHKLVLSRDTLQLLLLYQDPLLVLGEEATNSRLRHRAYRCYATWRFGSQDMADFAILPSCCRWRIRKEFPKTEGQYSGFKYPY

P2X purinoceptor 7 [4] = molecular target: T2, P2X purinoceptor 7 (Mus musculus, UniProt Q9Z1M0); test: as §1
T2 sequence (Q9Z1M0 whole entry): T1 sequence (whole entry)

[5] = Apparent permeability across apical to basolateral side in human Caco2 cells at 100 uM after 60 mins by lucifer yellow dye-based fluorescence assay; assay type: ADME, cell-based; conditions: Caco-2
P2X purinoceptor 7 [6] = molecular target: T2, P2X purinoceptor 7; test: Antagonist activity at P2X7 receptor in Swiss mouse peritoneal macrophages assessed as inhibition of ATP-induced current at holding potential of -60 mV preincubated for 5 mins followed by ATP addition measured after 5 mins by Whole cell patch-clamp analysis
Mus musculus [7] = test: Anti-inflammatory activity in Swiss mouse assessed as inhibition of LPS-induced protein extravasation in thoracic cavity at 100 ng/kg, ip pretreated for 1 hr followed by LPS stimulation and measured after 24 hrs; assay type: functional, organism-based
[8] = n-Octanol/PBS distribution coefficient, log D of the compound at pH 7.4 at 25 mM after 2 hrs; assay type: physicochemical
[9] = Intrinsic clearance in human liver microsomes assessed per mg protein at 1 uM measured up to 45 mins; assay type: ADME, microsome; conditions: read-out: CLH
[10] = Kinetic solubility in pH 7.4 phosphate buffer at 1 to 250 uM after 2 hrs; assay type: physicochemical; conditions: read-out: Kinetic_solubility
Mus musculus [11] = test: Anti-inflammatory activity in Swiss mouse assessed as inhibition of LPS-induced nitric oxide production in pleural washes at 1 to 100 ng/kg, ip pretreated for 1 hr followed by LPS stimulation and measured after 24 hrs by Lowry/Griess analysis; assay type: functional, organism-based
[12] = Kinetic solubility in pH 2 hydrochloride buffer at 1 to 250 uM after 2 hrs; assay type: physicochemical; conditions: read-out: Kinetic_solubility
Mus musculus [13] = test: Anti-inflammatory activity in po dosed Swiss Webster mouse assessed as inhibition of ATP-induced paw edema pretreated for 60 mins followed by ATP administration and measured after 30 mins; assay type: functional
P2X purinoceptor 7 [14] = molecular target: T3, P2X purinoceptor 7 (Homo sapiens, UniProt Q99572); test: Antagonist activity at human P2X7 receptor expressed in HEK293 cells assessed as inhibition of ATP-induced ethidium iodide uptake preincubated for 10 mins followed by ATP addition measured after 20 mins by spectrofluorometric analysis; assay type: cell-based
T3 sequence (Q99572 whole entry): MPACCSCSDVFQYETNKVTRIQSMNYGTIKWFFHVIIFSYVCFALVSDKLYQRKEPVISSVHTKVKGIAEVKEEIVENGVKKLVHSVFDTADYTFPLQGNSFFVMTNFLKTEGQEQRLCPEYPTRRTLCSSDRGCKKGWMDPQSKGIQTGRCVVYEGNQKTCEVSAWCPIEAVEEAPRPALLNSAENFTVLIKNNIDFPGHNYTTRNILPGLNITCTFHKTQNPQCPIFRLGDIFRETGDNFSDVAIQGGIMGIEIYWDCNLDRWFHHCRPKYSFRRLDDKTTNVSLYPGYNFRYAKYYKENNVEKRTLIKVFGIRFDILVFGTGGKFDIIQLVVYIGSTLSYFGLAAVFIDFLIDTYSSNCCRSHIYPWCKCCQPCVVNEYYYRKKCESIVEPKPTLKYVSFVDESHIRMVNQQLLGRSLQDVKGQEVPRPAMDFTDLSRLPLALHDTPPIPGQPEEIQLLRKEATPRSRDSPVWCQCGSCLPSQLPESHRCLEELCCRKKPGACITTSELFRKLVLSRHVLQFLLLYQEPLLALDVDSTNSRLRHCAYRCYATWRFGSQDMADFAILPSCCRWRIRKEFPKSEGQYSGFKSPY

[15] = Kinetic solubility in pH 4 citrate buffer at 1 to 250 uM after 2 hrs; assay type: physicochemical; conditions: read-out: Kinetic_solubility
Mus musculus [16] = test: Anti-inflammatory activity in ip dosed Swiss Webster mouse assessed as inhibition of carrageenan-induced paw edema pretreated for 60 mins followed by carrageenan administration and measured after 30 mins; assay type: functional
[17] = Kinetic solubility in pH 10 sodium hydroxide buffer at 1 to 250 uM after 2 hrs; assay type: physicochemical; conditions: read-out: Kinetic_solubility
Mus musculus [18] = test: Anti-inflammatory activity in Swiss mouse assessed as inhibition of LPS-induced pleural accumulation in total leucocytes at 1 to 100 ng/kg, ip pretreated for 1 hr followed by LPS stimulation and measured after 24 hrs by May-Grunwald-Giemsa staining-based Neubauer chamber based optical microscopy; assay type: functional, organism-based
[19] = molecular target: T4, P2X purinoceptor 7 (Homo sapiens) (UniProt Q99572); test: Antagonist activity at human P2X7 receptor expressed in HEK293 cells assessed as inhibition of ATP-induced ethidium iodide uptake at 10 uM preincubated for 10 mins followed by ATP addition measured after 20 mins by FLIPR assay relative to 1 mM ATP; assay type: cell-based
T4 sequence (whole entry): T3 sequence (Q99572 whole entry)

Mus musculus [20] = test: Anti-inflammatory activity in Swiss mouse assessed as inhibition of LPS-induced pleural accumulation in mononuclear cells at 1 to 100 ng/kg, ip pretreated for 1 hr followed by LPS stimulation and measured after 24 hrs by May-Grunwald-Giemsa staining-based Neubauer chamber based optical microscopy; assay type: functional, organism-based
Peritoneal macrophage = test: Toxicity in Swiss mouse peritoneal macrophages assessed as LDH release at 10 uM after 60 mins relative to 0.05% Triton X-100; assay type: cell-based; conditions: 1 h
Mus musculus [21] = test: Anti-inflammatory activity in po dosed Swiss Webster mouse assessed as inhibition of carrageenan-induced paw edema pretreated for 60 mins followed by carrageenan administration and measured after 60 mins; assay type: functional

Structure (SMILES): O=C(O)Cc1ccccc1Nc1c(Cl)cccc1Cl [DICLOFENAC]
Activity (Mus musculus [1]): inactive
Activity (Mus musculus [2]): Active

inhibition [3]: Dose-dependent effect
IC50 (P2X purinoceptor 7 [4]): 83 nM
Papp A→B at 1 h, 100 µM [5]: 77.4 ×10⁻⁶ cm/s
IC50 (P2X purinoceptor 7 [6]): 69 nM
logD at 2 h, 25000 µM [8]: -1.96
microsomal CLint at 1 µM [9]: 30.2 µL/min/mg
solubility kinetic at 2 h [10]: < 250 µM
solubility kinetic at 2 h [12]: < 250 µM
IC50 (P2X purinoceptor 7 [14]): 5.3 nM
solubility kinetic at 2 h [15]: < 250 µM
solubility kinetic at 2 h [17]: < 250 µM
inhibition [19]: 96.9%
Structure (SMILES): CCOCc1cn(-c2ccc(Cl)cc2)nn1
Activity (Mus musculus [7]): Active
Activity (Mus musculus [11]): Active
ID50 (Mus musculus [13]): 0.06859 µg/kg
Activity (Mus musculus [16]): Dose-dependent effect
ID50 (Mus musculus [16]): 0.09435 µg/kg
Activity (Mus musculus [18]): Active
Activity (Mus musculus [20]): Active
Activity (Peritoneal macrophage): 8.33%
ID50 (Mus musculus [21]): 0.08049 µg/kg
